# Reference: US20100035993A1, “METHODS AND COMPOSITIONS COMPRISING 2-[(3-CHLOROPHENYL) AMINO] PHENYLACETIC ACID FOR HYPERPERMEABILITY AND NEOVASCULARIZATION DISORDERS OF THE RETINA” (priority 2008, published 2010)
# Tests used:
# [1] = test system: PEDF; assay: PEDF in vitreous of streptozotocin-diabetic rats, immunoassay; type: in vivo, rat; settings: vitreous of male streptozotocin-diabetic rats treated for 26 weeks with 15 mg/kg/day by gavage; Normal Control 15.3, Diabetic Control 4.6
# Procedure: (§1) Vitreous was harvested from male rats that were rendered diabetic by intravenous injection of streptozotocin and that were treated for 26 weeks with 23CPPA (15 mg/kg/day) administered by gavage, and from age and gender matched diabetic and nondiabetic control rats. PEDF and VEGF were measured by immunoassay. The relative ratio of VEGF to PEDF in diabetic control rats and diabetic rats treated with 23CPPA was compared to that in nondiabetic control rats which was assigned an arbitrary value of 1.0.
# [2] = test system: VEGF; assay: VEGF in vitreous of streptozotocin-diabetic rats, immunoassay; type: in vivo, rat; settings: vitreous of male streptozotocin-diabetic rats treated for 26 weeks with 15 mg/kg/day by gavage; Normal Control 75, Diabetic Control 167
# Procedure: as §1
smiles,measurement,setting,value
"O=C(O)Cc1ccccc1Nc1cccc(Cl)c1 [23CPPA, 2-[(3-chlorophenyl)amino]phenylacetic acid]",PEDF,[1],8.7 ng/mL
same,VEGF,[2],105 pg/mL
